According to ChEMBL document CHEMBL4706484, “Apigenin-rivastigmine hybrids as multi-target-directed liagnds for the treatment of Alzheimer's disease” (Eur J Med Chem, 2020):
Active and inactive are the calls of the source. The rule behind the calls is not given here.

Tests used:
[1] = Metal chelating activity assessed as Cu2+-compound complex formation by measuring absorption wavelength at 37.5 uM in presence of 37.5 uM CuCl2 by UV-Vis spectroscopic analysis
Cholinesterase [2] = target: T1, Cholinesterase (Homo sapiens, UniProt P06276); assay: Pseudo-irreversible inhibition of human serum BChE assessed as enzyme recovery activity at IC50 using diluted compound relative to control; format: cell-free; parameters: scale not given: the % may be the effect or the level left
T1 sequence (P06276 whole entry): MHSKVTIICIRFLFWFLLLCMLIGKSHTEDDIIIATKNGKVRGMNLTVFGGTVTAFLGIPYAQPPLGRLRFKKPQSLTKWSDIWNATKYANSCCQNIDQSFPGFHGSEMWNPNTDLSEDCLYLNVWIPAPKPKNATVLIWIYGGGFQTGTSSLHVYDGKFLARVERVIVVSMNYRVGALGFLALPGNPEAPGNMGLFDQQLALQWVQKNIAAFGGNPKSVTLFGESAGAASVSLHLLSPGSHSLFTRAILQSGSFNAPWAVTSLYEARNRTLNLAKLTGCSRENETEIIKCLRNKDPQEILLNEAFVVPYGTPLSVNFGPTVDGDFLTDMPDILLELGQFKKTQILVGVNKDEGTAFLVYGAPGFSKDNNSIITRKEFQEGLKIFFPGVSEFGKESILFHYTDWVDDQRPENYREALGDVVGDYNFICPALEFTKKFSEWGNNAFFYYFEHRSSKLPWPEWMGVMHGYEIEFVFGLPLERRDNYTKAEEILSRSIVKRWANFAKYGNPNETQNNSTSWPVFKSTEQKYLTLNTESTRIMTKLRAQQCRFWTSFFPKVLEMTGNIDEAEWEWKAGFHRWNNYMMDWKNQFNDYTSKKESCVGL

Danio rerio [3] = species: Danio rerio; assay: Antialzheimer activity against 3 dpf zebrafish model of AlCl3-induced AD assessed as motility by measuring change in speed at 4.2 ug/ml (reference value: 1.05 mm/s); format: functional; settings: dose 4.2 µg/ml
[4] = Acute toxicity in 2 dpf zebrafish assessed as bradycardia at 1.39 to 12.5 ug/ml measured after 3 days; parameters: species or system Danio rerio; settings: in vivo, 72 h, dose 1.39-12.5 µg/ml, time 3 day
Danio rerio [5] = species: Danio rerio; assay: Antialzheimer activity against 3 dpf zebrafish model of AlCl3-induced AD assessed as change in motility distance at 1.4 ug/ml (reference value: 5204 mm); format: functional; settings: dose 1.4 µg/ml
[6] = Acute toxicity in 2 dpf zebrafish assessed as abnormal trunk at 1.39 to 12.5 ug/ml measured after 3 days; parameters: species or system Danio rerio; settings: in vivo, 72 h, dose 1.39-12.5 µg/ml, time 3 day
[7] = Toxicity in 2 dpf zebrafish at 1.39 ug/ml measured after 3 days; parameters: species or system Danio rerio; settings: in vivo, 72 h, dose 1.39 µg/ml, time 3 day
[8] = Acute toxicity in 2 dpf zebrafish assessed as short or misshapen jaw at 1.39 to 12.5 ug/ml measured after 3 days; parameters: species or system Danio rerio; settings: in vivo, 72 h, dose 1.39-12.5 µg/ml, time 3 day
[9] = target: Amyloid-beta precursor protein (Homo sapiens) (UniProt P05067); assay: Disaggregation of self-induced amyloid beta (1 to 42) (unknown origin) preformed fibrils at 25 uM by ThT fluorescence assay relative to control
Sequence of Amyloid-beta precursor protein (Homo sapiens) (P05067 whole entry): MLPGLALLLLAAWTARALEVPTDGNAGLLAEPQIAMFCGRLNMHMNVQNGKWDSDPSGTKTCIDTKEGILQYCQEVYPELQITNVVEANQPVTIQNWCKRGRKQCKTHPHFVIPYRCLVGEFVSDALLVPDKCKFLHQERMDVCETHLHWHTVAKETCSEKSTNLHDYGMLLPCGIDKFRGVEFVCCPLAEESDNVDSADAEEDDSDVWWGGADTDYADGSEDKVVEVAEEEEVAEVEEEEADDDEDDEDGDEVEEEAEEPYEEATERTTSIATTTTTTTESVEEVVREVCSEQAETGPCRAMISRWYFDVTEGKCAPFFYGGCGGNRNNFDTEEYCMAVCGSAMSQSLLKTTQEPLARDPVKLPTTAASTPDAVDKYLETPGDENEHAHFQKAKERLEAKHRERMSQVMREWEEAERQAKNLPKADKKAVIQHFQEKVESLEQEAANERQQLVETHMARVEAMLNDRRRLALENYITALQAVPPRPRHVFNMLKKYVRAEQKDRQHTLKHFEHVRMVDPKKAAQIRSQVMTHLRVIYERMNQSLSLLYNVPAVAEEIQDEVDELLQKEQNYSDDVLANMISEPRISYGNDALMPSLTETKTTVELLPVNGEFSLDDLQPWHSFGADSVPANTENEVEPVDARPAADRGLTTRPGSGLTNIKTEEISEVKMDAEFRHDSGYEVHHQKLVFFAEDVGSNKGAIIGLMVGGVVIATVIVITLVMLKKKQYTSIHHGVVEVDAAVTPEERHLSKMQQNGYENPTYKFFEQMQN

Cholinesterase [10] = target: T1, Cholinesterase; assay: Pseudo-irreversible inhibition of human serum BChE assessed as enzyme recovery activity at 0.1 times IC50 measured immediately using diluted compound; format: cell-free; parameters: scale not given: the % may be the effect or the level left
Acetylcholinesterase [11] = target: T2, Acetylcholinesterase (Rattus norvegicus, UniProt P37136); assay: Inhibition of rat cortex AChE using acetylthiocholine iodide as substrate measured after 15 mins by Ellman's method; format: tissue-based
T2 sequence (P37136 whole entry): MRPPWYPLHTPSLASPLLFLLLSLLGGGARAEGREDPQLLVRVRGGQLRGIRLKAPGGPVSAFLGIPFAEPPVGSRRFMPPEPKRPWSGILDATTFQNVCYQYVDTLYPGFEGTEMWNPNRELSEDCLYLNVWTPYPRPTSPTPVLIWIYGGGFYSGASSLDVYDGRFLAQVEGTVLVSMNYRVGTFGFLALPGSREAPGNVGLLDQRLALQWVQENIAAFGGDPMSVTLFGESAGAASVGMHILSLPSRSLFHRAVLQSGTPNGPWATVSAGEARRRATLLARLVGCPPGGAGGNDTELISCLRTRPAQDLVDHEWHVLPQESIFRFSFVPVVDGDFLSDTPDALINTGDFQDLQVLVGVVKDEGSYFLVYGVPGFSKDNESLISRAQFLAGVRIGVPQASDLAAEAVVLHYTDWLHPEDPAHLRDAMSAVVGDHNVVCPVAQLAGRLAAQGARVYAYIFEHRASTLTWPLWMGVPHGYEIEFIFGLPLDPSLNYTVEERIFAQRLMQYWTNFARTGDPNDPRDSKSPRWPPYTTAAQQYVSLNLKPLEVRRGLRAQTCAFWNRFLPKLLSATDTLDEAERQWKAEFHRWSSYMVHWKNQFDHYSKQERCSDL

Danio rerio [12] = species: Danio rerio; assay: Protection against amyloid beta (1 to 40 residues)-induced vascular injury in transgenic zebrafish assessed as efficacy on motility at 12.5 ug/ml relative to control; format: functional; settings: dose 12.5 µg/ml
Danio rerio [13] = species: Danio rerio; assay: Protection against amyloid beta (1 to 40 residues)-induced vascular injury in transgenic zebrafish assessed as vascular injury rate at 1.4 ug/ml (reference value: 73.3 %); format: functional; settings: dose 1.4 µg/ml
[14] = Drug metabolism in rat intestine assessed as metabolite formation by UPLC-MS/MS analysis; format: ADME, tissue-based
Danio rerio [15] = species: Danio rerio; assay: Protection against amyloid beta (1 to 40 residues)-induced vascular injury in transgenic zebrafish assessed as efficacy on motility at 1.4 ug/ml relative to control; format: functional; settings: dose 1.4 µg/ml
[16] = Acute toxicity in 2 dpf zebrafish assessed as yolk sac absorption delay at 4.17 ug/ml measured after 3 days relative to control; parameters: species or system Danio rerio; settings: in vivo, 72 h, at 4.17 µg/mL, time 3 day
Cholinesterase [17] = target: T1, Cholinesterase; assay: Pseudo-irreversible inhibition of human serum BChE assessed as enzyme recovery activity at 0.1 times IC50 using diluted compound relative to control; format: cell-free; parameters: scale not given: the % may be the effect or the level left
[18] = Acute toxicity in 2 dpf zebrafish assessed as pericardial edema at 1.39 to 12.5 ug/ml measured after 3 days; parameters: species or system Danio rerio; settings: in vivo, 72 h, dose 1.39-12.5 µg/ml, time 3 day
[19] = Acute toxicity in 2 dpf zebrafish assessed as kidney edema at 1.39 to 12.5 ug/ml measured after 3 days; parameters: species or system Danio rerio; settings: in vivo, 72 h, dose 1.39-12.5 µg/ml, time 3 day
Mus musculus [20] = assay: Antialzheimer activity in scopolamine-induced Kunming mouse model of memory impairment assessed as uniquely mapped in brain hippocampus at 10 mg/kg by illumina sequencing method (reference value: 94.54 %); format: functional
[21] = Cytotoxicity against human L02 cells assessed as cell viability at 6.25 uM measured after 72 hrs by MTT assay relative to control; format: cell-based; settings: read-out: Activity
[22] = Toxicity in 3 dpf zebrafish model of AlCl3-induced AD at 12.5 to 200 microg/ml; parameters: species or system Danio rerio; settings: in vivo, dose 12.5-200 µg/ml
[23] = Acute toxicity in 2 dpf zebrafish assessed as maximum non-lethal concentration measured after 3 days; parameters: species or system Danio rerio; settings: in vivo, time 3 day
[24] = Acute toxicity in 2 dpf zebrafish assessed as death at 1.39 to 12.5 ug/ml measured after 3 days; parameters: species or system Danio rerio; settings: in vivo, 72 h, dose 1.39-12.5 µg/ml, time 3 day
SH-SY5Y = assay: Neuroprotective activity against amyloid beta (1 to 42 residues)-induced cell injury in human SH-SY5Y cells assessed as cell viability at 10 uM preincubated for 2 hrs followed by H2O2 addition and measured after 24 hrs by MTT assay (reference value: 52.3 %); format: functional; settings: time 26 hrs, read-out: Activity
[25] = Acute toxicity in Kunming mouse assessed as hypokinesia at 2000 mg/kg; format: organism-based; settings: in vivo
Danio rerio [26] = species: Danio rerio; assay: Antialzheimer activity against 3 dpf zebrafish model of AlCl3-induced AD assessed as motility by measuring efficacy on speed change at 4.2 ug/ml relative to control; format: functional; settings: dose 4.2 µg/ml
Mus musculus [27] = assay: Cognitive enhancing effect in scopolamine-induced Kunming mouse model of memory impairment assessed as effect on total arm entries at 5 to 20 mg/kg by Y-maze test; format: functional, organism-based; settings: dose 5-20 mg/kg
Cholinesterase [28] = target: T1, Cholinesterase; assay: Pseudo-irreversible inhibition of human serum BChE assessed as enzyme recovery activity at 0.1 times IC50 measured at 240 mins using diluted compound relative to basal level; format: cell-free; parameters: scale not given: the % may be the effect or the level left
Acetylcholinesterase [29] = target: Acetylcholinesterase (Homo sapiens, UniProt P22303); assay: Pseudo-irreversible inhibition of human erythrocytes AChE assessed as enzyme recovery activity at 0.1 times IC50 measured at 120 mins using diluted compound relative to control; format: tissue-based; parameters: scale not given: the % may be the effect or the level left; settings: Erythrocyte
Sequence of Acetylcholinesterase (Homo sapiens, UniProt P22303) (P22303 whole entry): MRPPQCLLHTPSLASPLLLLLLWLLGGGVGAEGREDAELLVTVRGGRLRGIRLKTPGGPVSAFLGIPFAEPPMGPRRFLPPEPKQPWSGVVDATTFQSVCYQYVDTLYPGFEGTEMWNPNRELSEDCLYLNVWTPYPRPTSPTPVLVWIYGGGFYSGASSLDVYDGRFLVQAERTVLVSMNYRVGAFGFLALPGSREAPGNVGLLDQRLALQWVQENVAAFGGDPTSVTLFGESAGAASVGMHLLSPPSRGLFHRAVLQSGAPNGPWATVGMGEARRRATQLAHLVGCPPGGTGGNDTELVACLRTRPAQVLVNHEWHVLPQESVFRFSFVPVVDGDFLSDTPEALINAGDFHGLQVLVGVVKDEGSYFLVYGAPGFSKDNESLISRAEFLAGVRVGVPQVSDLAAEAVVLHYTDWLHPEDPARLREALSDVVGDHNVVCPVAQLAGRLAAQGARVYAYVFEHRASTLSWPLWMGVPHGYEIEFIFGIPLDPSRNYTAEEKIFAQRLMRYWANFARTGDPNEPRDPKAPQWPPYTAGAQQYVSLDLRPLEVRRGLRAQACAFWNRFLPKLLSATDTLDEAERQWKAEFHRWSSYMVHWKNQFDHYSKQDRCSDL

[30] = Acute toxicity in 2 dpf zebrafish assessed as small or misshapen brain at 1.39 to 12.5 ug/ml measured after 3 days; format: tissue-based, Danio rerio; settings: in vivo, 72 h, dose 1.39-12.5 µg/ml, time 3 day
[31] = Metal chelating activity assessed as compound-Cu2+ complex stoichiometry ratio of 1:1 at 37.5 uM in presence of CuCl2 by UV-visible spectrophotometric analysis

Structure (SMILES): CCN(C)C(=O)Oc1ccc(-c2cc(=O)c3c(O)cc(OC(=O)N(C)CC)cc3o2)cc1
- Activity [1]: 398 nm
- Activity (Cholinesterase [2]): 54.1%
- Activity (Danio rerio [3]): 1.98 millimeter/sec
- Activity [4]: Non-Toxic
- Activity (Danio rerio [5]): 6432 mm
- Activity [6]: Non-Toxic
- Activity [7]: Non-Toxic
- Activity [8]: Non-Toxic
- Activity [9]: 66.2%
- Activity (Cholinesterase [10]): 44.8%
- IC50 (Acetylcholinesterase [11]): 4.7 µM
- Efficacy (Danio rerio [12]): 64%
- Activity (Danio rerio [13]): 60%
- Drug metabolism [14]: Metabolite_Detected
- Efficacy (Danio rerio [15]): 18%
- Activity [16]: 33.3%
- Activity (Cholinesterase [17]): 44.8%
- Activity [18]: Non-Toxic
- Activity [19]: Non-Toxic
- Activity (Mus musculus [20]): 93.76%
- viability at 72 h, 6.25 µM [21]: 99%
- Activity [22]: Non-Toxic
- MNTC at 72 h [23]: 12.5 µg/mL
- Activity [24]: Non-Toxic
- viability at 10 µM (SH-SY5Y): 72.3%
- Activity [25]: Toxic
- Efficacy (Danio rerio [26]): 72%
- Activity (Mus musculus [27]): inactive
- Activity (Cholinesterase [28]): 71.7%
- Activity (Acetylcholinesterase [29]): 83.6%
- Activity [30]: Non-Toxic
- Activity [31]: Active
